Results taken from ChEMBL document CHEMBL1131036, “Structure-based design, synthesis, and biological evaluation of irreversible human rhinovirus 3C protease inhibitors. 1. Michael acceptor structure-activity studies” (J Med Chem, 1998).
Calls of active or inactive are those of the source. The calls are words filed in the database; no cut-off is given here.

Assays:
[1] = system: HeLa; experiment: Formazan production in HRV-14 virus infected cells; type: functional, cell-based; conditions: Homo sapiens
[2] = system: HeLa; experiment: Concentration of compound that decreased the percentage of formazan production in treated HRV-14 virus infected cells to that produced in uninfected cells; type: functional; conditions: Homo sapiens
[3] = system: Human rhinovirus sp.; experiment: Inhibitory activity of compound towards partial or complete loss of 3C protease (HRV-14) activity in presence of 5 mM dithiothreitol (DTT); inhibition observed; type: functional, organism-based
[4] = molecular target: T1, Human rhinovirus A protease (Human rhinovirus sp.) (UniProt Q4U254); experiment: Catalytic rate constant (Kobs/[I]) evaluated against human rhinovirus (HRV) serotype 14 3C Protease (3CP); conditions: Human rhinovirus B (HRV-14)
T1 sequence (whole entry): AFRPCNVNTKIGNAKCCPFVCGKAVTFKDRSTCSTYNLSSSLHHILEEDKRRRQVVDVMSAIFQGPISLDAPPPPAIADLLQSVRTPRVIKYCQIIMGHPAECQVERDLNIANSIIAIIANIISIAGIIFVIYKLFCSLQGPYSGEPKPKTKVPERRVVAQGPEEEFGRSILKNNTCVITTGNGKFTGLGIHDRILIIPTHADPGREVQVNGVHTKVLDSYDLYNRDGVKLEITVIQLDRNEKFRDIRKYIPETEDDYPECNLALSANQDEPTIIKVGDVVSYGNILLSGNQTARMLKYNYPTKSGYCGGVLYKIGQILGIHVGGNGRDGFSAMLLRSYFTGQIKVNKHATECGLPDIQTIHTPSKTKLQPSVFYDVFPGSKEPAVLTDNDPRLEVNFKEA

[5] = Half-life in rat plasma; type: ADME, organism-based
[6] = molecular target: T1, Human rhinovirus A protease (Human rhinovirus sp.); experiment: Catalytic rate constant (Kobs/[I]) was evaluated against human rhinovirus (HRV) serotype 2 3C Protease (3CP)
[7] = molecular target: T1, Human rhinovirus A protease (Human rhinovirus sp.); experiment: Catalytic rate constant (Kobs/[I]) was evaluated against human rhinovirus (HRV) serotype 16 3C Protease (3CP)
[8] = system: Human rhinovirus sp.; experiment: Inhibitory activity of compound towards partial or complete loss of 3C protease (HRV-14) activity in presence of 5 mM dithiothreitol (DTT); No inhibition; type: functional, organism-based
[9] = system: HeLa; experiment: Concentration of compound that increased the percentage of formazan production in HRV-16 virus infected cells to that of untreated control cells; type: functional, cell-based; conditions: Homo sapiens
[10] = system: HeLa; experiment: Concentration of compound that increased the percentage of formazan production in HRV-2 virus infected cells to that of untreated control cells; type: functional, cell-based; conditions: Homo sapiens

Row | SMILES | EC50 [1] [µM] | CC50 [2] [µM] | inhibition [3] | K obs / 1 [4] [M⁻¹ s⁻¹] | half-life [5] [min] | K obs / 1 [6] [M⁻¹ s⁻¹] | K obs / 1 [7] [M⁻¹ s⁻¹] | inhibition [8] | EC50 [9] [µM] | EC50 [10] [µM]
1 | CC(C)C[C@H](NC(=O)OCc1ccccc1)C(=O)N[C@@H](Cc1ccccc1)C(=O)N[C@H](/C=C/C(=O)N1CCOC1=O)CCC(N)=O | 1.6 | > 100 | Yes | 600000 | – | – | – | – | – | –
2 | CC(C)C[C@H](NC(=O)OCc1ccccc1)C(=O)N[C@@H](Cc1ccccc1)C(=O)N[C@H](/C=C/C(=O)OC1CCCCC1)CCC(N)=O | 3.6 | > 320 | – | 3700 | 4 | – | – | – | – | –
3 | CC(=O)/C=C/[C@H](CCC(N)=O)NC(=O)[C@H](Cc1ccccc1)NC(=O)[C@H](CC(C)C)NC(=O)OCc1ccccc1 | 2 | 60 | – | 54000 | – | 2700 | 8900 | – | – | –
4 | CC(C)C[C@H](NC(=O)OCc1ccccc1)C(=O)N[C@@H](Cc1ccccc1)C(=O)N[C@H](/C=C/C(=O)N1CCc2ccc(S(=O)(=O)N(C)C)cc21)CCC(N)=O | > 100 | – | – | 28300 | – | – | – | inactive | – | –
5 | CCOC(=O)/C=C/[C@H](CCC(N)=O)NC(=O)[C@H](Cc1ccccc1)NC(=O)[C@H](CC(C)C)NC(=O)OCc1ccccc1 | 0.54 | > 320 | – | – | 10 | – | – | – | 2.3 | 1.6
6 | CON(C)C(=O)/C=C/[C@H](CCC(N)=O)NC(=O)[C@H](Cc1ccccc1)NC(=O)[C@H](CC(C)C)NC(=O)OCc1ccccc1 | 4 | > 100 | – | 5900 | 12 | – | – | – | – | –
7 | CC(C)C[C@H](NC(=O)OCc1ccccc1)C(=O)N[C@@H](Cc1ccccc1)C(=O)N[C@H](/C=C/C(=O)N1CCCC1=O)CCC(N)=O | 0.89 | > 320 | Yes | 126000 | – | – | – | – | – | –
8 | CC(C)C[C@H](NC(=O)OCc1ccccc1)C(=O)N[C@@H](Cc1ccccc1)C(=O)N[C@H](/C=C/C(=O)N1CCc2ccccc21)CCC(N)=O | 16 | > 320 | – | 6500 | > 80 | – | – | – | – | –
9 | CC(=O)N1CC/C(=C\[C@H](CCC(N)=O)NC(=O)[C@H](Cc2ccccc2)NC(=O)[C@H](CC(C)C)NC(=O)OCc2ccccc2)C1=O | 0.71 | > 100 | – | 156000 | – | 13000 | 39000 | – | – | –
10 | CC(C)C[C@H](NC(=O)OCc1ccccc1)C(=O)N[C@@H](Cc1ccccc1)C(=O)N[C@H](/C=C/C(=O)N1CCN(C)C1=O)CCC(N)=O | 5 | > 320 | Yes | 312000 | – | – | – | – | – | –
11 | CC(C)C[C@H](NC(=O)OCc1ccccc1)C(=O)N[C@@H](Cc1ccccc1)C(=O)N[C@H](/C=C/C(=O)c1ccco1)CCC(N)=O | 2.4 | 19 | Yes | 460000 | – | – | – | – | – | –
12 | CC(C)C[C@H](NC(=O)OCc1ccccc1)C(=O)N[C@@H](Cc1ccccc1)C(=O)N[C@H](/C=C/C(=O)N1CCc2cc([N+](=O)[O-])ccc21)CCC(N)=O | 17 | > 320 | – | 12000 | – | – | – | inactive | – | –
13 | CC(C)C[C@H](NC(=O)OCc1ccccc1)C(=O)N[C@@H](Cc1ccccc1)C(=O)N[C@H](/C=C1\CCOC1=O)CCC(N)=O | 5.2 | > 320 | – | 10900 | > 240 | – | – | – | – | –
14 | CC(C)C[C@H](NC(=O)OCc1ccccc1)C(=O)N[C@@H](Cc1ccccc1)C(=O)N[C@H](/C=C/[N+](=O)[O-])CCC(N)=O | > 100 | 100 | Yes | 500000 | – | – | – | – | – | –
15 | CC(C)C[C@H](NC(=O)OCc1ccccc1)C(=O)N[C@@H](Cc1ccccc1)C(=O)N[C@H](/C=C/C(=O)N1CCc2ccc([N+](=O)[O-])cc21)CCC(N)=O | > 320 | > 320 | – | 29000 | – | – | – | inactive | – | –
16 | CCOC(=O)/C(C)=C/[C@H](CCC(N)=O)NC(=O)[C@H](Cc1ccccc1)NC(=O)[C@H](CC(C)C)NC(=O)OCc1ccccc1 | 3 | > 320 | – | 7300 | 20 | – | – | – | – | –
17 | CC(C)C[C@H](NC(=O)OCc1ccccc1)C(=O)N[C@@H](Cc1ccccc1)C(=O)N[C@H](/C=C/S(=O)(=O)c1ccccc1)CCC(N)=O | 200 | > 320 | – | 270 | – | – | – | – | – | –
18 | COC(=O)N1CC/C(=C\[C@H](CCC(N)=O)NC(=O)[C@H](Cc2ccccc2)NC(=O)[C@H](CC(C)C)NC(=O)OCc2ccccc2)C1=O | 28 | > 100 | – | 8400 | – | – | – | – | – | –
